Numbers after ± are expanded uncertainties.
Details: 298.15 K; 101.33 kPa; Liquid

**Q.** For `CCCCCCCCCCCCCCCC` [hexadecane], which mass density is on record?
**A.** Its mass density is 771.5 ± 1.4 kg/m3.

**Q.** With `CCCCCCn1cc[n+](C)c1.F[P-](F)(F)(F)(F)F` [1-hexyl-3-methylimidazolium hexafluorophosphate] as the compound, how does the mass density read?
**A.** The mass density was 1293.5 ± 7 kg/m3.

**Q.** With `CCCCCCC` [heptane] as the compound, how does the mass density read?
**A.** The mass density was 690.6 ± 1.6 kg/m3.

**Q.** For `CCCCCCCCCCCC` [dodecane], which mass density is on record?
**A.** The mass density was 747 ± 4 kg/m3.

**Q.** Which mass density does the source give for `c1ccccc1` [benzene] here?
**A.** Its mass density is 873.2 ± 0.9 kg/m3.

**Q.** Which mass density does the source give for `CCCCCCn1cc[n+](C)c1.F[B-](F)(F)F` [1-hexyl-3-methylimidazolium tetrafluoroborate] here?
**A.** The mass density was 1148.1 ± 5 kg/m3.
